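Cultured in 96-well plates, cells were exposed to test compound for 48 hours across five concentrations. TGI marks complete inhibition of growth.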
Key:
Assay in all cases: NCI-60 cell line screen, 48 h
786-0 renal = system: 786-0 renal
A498 renal = system: A498 renal
A549 NSCLC = system: A549 NSCLC
ACHN renal = system: ACHN renal
BT-549 breast = system: BT-549 breast
CAKI-1 renal = system: CAKI-1 renal
CCRF-CEM leukemia = system: CCRF-CEM leukemia
COLO 205 colon = system: COLO 205 colon
DU-145 prostate = system: DU-145 prostate
EKVX NSCLC = system: EKVX NSCLC
HCC-2998 colon = system: HCC-2998 colon
HCT-116 colon = system: HCT-116 colon
HCT-15 colon = system: HCT-15 colon
HOP-62 NSCLC = system: HOP-62 NSCLC
HOP-92 NSCLC = system: HOP-92 NSCLC
HS 578T breast = system: HS 578T breast
HT29 colon = system: HT29 colon
IGROV1 ovarian = system: IGROV1 ovarian
K-562 leukemia = system: K-562 leukemia
KM12 colon = system: KM12 colon
LOX IMVI melanoma = system: LOX IMVI melanoma
M14 melanoma = system: M14 melanoma
MALME-3M melanoma = system: MALME-3M melanoma
MCF7 breast = system: MCF7 breast
MDA-MB-231 breast = system: MDA-MB-231 breast
MDA-MB-435 = system: MDA-MB-435
MDA-N = system: MDA-N
MOLT-4 leukemia = system: MOLT-4 leukemia
NCI-H226 lung = system: NCI-H226 lung
NCI-H23 lung = system: NCI-H23 lung
NCI-H460 lung = system: NCI-H460 lung
NCI-H522 lung = system: NCI-H522 lung
NCI/ADR-RES ovarian = system: NCI/ADR-RES ovarian
OVCAR-3 ovarian = system: OVCAR-3 ovarian
OVCAR-4 ovarian = system: OVCAR-4 ovarian
OVCAR-5 ovarian = system: OVCAR-5 ovarian
OVCAR-8 ovarian = system: OVCAR-8 ovarian
PC-3 prostate = system: PC-3 prostate
RPMI-8226 leukemia = system: RPMI-8226 leukemia
RXF 393 renal = system: RXF 393 renal
SF-268 CNS = system: SF-268 CNS
SF-295 CNS = system: SF-295 CNS
SF-539 CNS = system: SF-539 CNS
SK-MEL-2 melanoma = system: SK-MEL-2 melanoma
SK-MEL-28 melanoma = system: SK-MEL-28 melanoma
SK-MEL-5 melanoma = system: SK-MEL-5 melanoma
SN12C renal = system: SN12C renal
SNB-19 CNS = system: SNB-19 CNS
SR leukemia = system: SR leukemia
SW-620 colon = system: SW-620 colon
TK-10 renal = system: TK-10 renal
U251 CNS = system: U251 CNS
UACC-257 melanoma = system: UACC-257 melanoma
UACC-62 melanoma = system: UACC-62 melanoma
UO-31 renal = system: UO-31 renal
HL-60(TB) leukemia = system: HL-60(TB) leukemia
SK-OV-3 ovarian = system: SK-OV-3 ovarian
SNB-75 CNS = system: SNB-75 CNS

Q: What does the source list for `CC(=O)Oc1ccc(/C=C/C(=O)NCC(NC(=O)/C=C/c2ccc(OC(C)=O)c(OC(C)=O)c2)C(=O)O)cc1OC(C)=O` (centres undefined)?
A: TGI (786-0 renal): > 100 µM; TGI (A498 renal): > 100 µM; TGI (A549 NSCLC): > 100 µM; TGI (ACHN renal): > 100 µM; TGI (BT-549 breast): > 100 µM; TGI (CAKI-1 renal): > 100 µM; TGI (CCRF-CEM leukemia): > 100 µM; TGI (COLO 205 colon): > 100 µM; TGI (DU-145 prostate): > 100 µM; TGI (EKVX NSCLC): > 100 µM; TGI (HCC-2998 colon): > 100 µM; TGI (HCT-116 colon): > 100 µM; TGI (HCT-15 colon): > 100 µM; TGI (HOP-62 NSCLC): > 100 µM; TGI (HOP-92 NSCLC): > 100 µM; TGI (HS 578T breast): > 100 µM; TGI (HT29 colon): > 100 µM; TGI (IGROV1 ovarian): > 100 µM; TGI (K-562 leukemia): > 100 µM; TGI (KM12 colon): > 100 µM; TGI (LOX IMVI melanoma): > 100 µM; TGI (M14 melanoma): > 100 µM; TGI (MALME-3M melanoma): > 100 µM; TGI (MCF7 breast): > 100 µM; TGI (MDA-MB-231 breast): > 100 µM; TGI (MDA-MB-435): > 100 µM; TGI (MDA-N): > 100 µM; TGI (MOLT-4 leukemia): 50.1 µM; TGI (NCI-H226 lung): > 100 µM; TGI (NCI-H23 lung): > 100 µM; TGI (NCI-H460 lung): > 100 µM; TGI (NCI-H522 lung): > 100 µM; TGI (NCI/ADR-RES ovarian): > 100 µM; TGI (OVCAR-3 ovarian): > 100 µM; TGI (OVCAR-4 ovarian): > 100 µM; TGI (OVCAR-5 ovarian): > 100 µM; TGI (OVCAR-8 ovarian): > 100 µM; TGI (PC-3 prostate): > 100 µM; TGI (RPMI-8226 leukemia): > 100 µM; TGI (RXF 393 renal): > 100 µM; TGI (SF-268 CNS): > 100 µM; TGI (SF-295 CNS): > 100 µM; TGI (SF-539 CNS): > 100 µM; TGI (SK-MEL-2 melanoma): > 100 µM; TGI (SK-MEL-28 melanoma): > 100 µM; TGI (SK-MEL-5 melanoma): > 100 µM; TGI (SN12C renal): > 100 µM; TGI (SNB-19 CNS): > 100 µM; TGI (SR leukemia): > 100 µM; TGI (SW-620 colon): > 100 µM; TGI (TK-10 renal): > 100 µM; TGI (U251 CNS): > 100 µM; TGI (UACC-257 melanoma): > 100 µM; TGI (UACC-62 melanoma): > 100 µM; TGI (UO-31 renal): > 100 µM

Q: For `CCOP(=O)(OCC)/C(C#N)=C/c1coc2cc(C)cc(C)c2c1=O`, which TGI (786-0 renal) is on record?
A: > 100 µM

Q: And the TGI (A498 renal)?
A: > 100 µM

Q: And the TGI (A549 NSCLC)?
A: > 100 µM

Q: What about the TGI (ACHN renal) of the same compound?
A: > 100 µM

Q: And the TGI (BT-549 breast)?
A: > 100 µM

Q: What about the TGI (CAKI-1 renal) of the same compound?
A: > 100 µM

Q: What about the TGI (CCRF-CEM leukemia) of the same compound?
A: > 100 µM

Q: And the TGI (COLO 205 colon)?
A: > 100 µM

Q: What about the TGI (DU-145 prostate) of the same compound?
A: > 100 µM

Q: And the TGI (EKVX NSCLC)?
A: > 100 µM

Q: And the TGI (HCC-2998 colon)?
A: > 100 µM

Q: And the TGI (HCT-116 colon)?
A: > 100 µM

Q: And the TGI (HL-60(TB) leukemia)?
A: > 100 µM

Q: What about the TGI (HOP-62 NSCLC) of the same compound?
A: > 100 µM

Q: And the TGI (HOP-92 NSCLC)?
A: > 100 µM

Q: What about the TGI (HS 578T breast) of the same compound?
A: > 100 µM

Q: What about the TGI (HT29 colon) of the same compound?
A: > 100 µM

Q: And the TGI (IGROV1 ovarian)?
A: > 100 µM

Q: And the TGI (K-562 leukemia)?
A: > 100 µM

Q: And the TGI (KM12 colon)?
A: > 100 µM

Q: What about the TGI (LOX IMVI melanoma) of the same compound?
A: > 100 µM

Q: What about the TGI (M14 melanoma) of the same compound?
A: > 100 µM

Q: What about the TGI (MALME-3M melanoma) of the same compound?
A: > 100 µM

Q: What about the TGI (MCF7 breast) of the same compound?
A: > 100 µM

Q: What about the TGI (MDA-MB-231 breast) of the same compound?
A: > 100 µM

Q: And the TGI (MDA-MB-435)?
A: > 100 µM

Q: And the TGI (MDA-N)?
A: > 100 µM

Q: What about the TGI (MOLT-4 leukemia) of the same compound?
A: > 100 µM

Q: What about the TGI (NCI-H226 lung) of the same compound?
A: > 100 µM

Q: What about the TGI (NCI-H23 lung) of the same compound?
A: > 100 µM

Q: And the TGI (NCI-H460 lung)?
A: > 100 µM

Q: And the TGI (NCI-H522 lung)?
A: > 100 µM

Q: What about the TGI (NCI/ADR-RES ovarian) of the same compound?
A: > 100 µM

Q: What about the TGI (OVCAR-3 ovarian) of the same compound?
A: > 100 µM

Q: What about the TGI (OVCAR-4 ovarian) of the same compound?
A: > 100 µM

Q: And the TGI (OVCAR-5 ovarian)?
A: > 100 µM

Q: And the TGI (OVCAR-8 ovarian)?
A: > 100 µM

Q: And the TGI (PC-3 prostate)?
A: > 100 µM

Q: What about the TGI (RPMI-8226 leukemia) of the same compound?
A: > 100 µM

Q: What about the TGI (SF-268 CNS) of the same compound?
A: > 100 µM

Q: And the TGI (SF-295 CNS)?
A: > 100 µM

Q: What about the TGI (SK-MEL-2 melanoma) of the same compound?
A: > 100 µM

Q: What about the TGI (SK-MEL-28 melanoma) of the same compound?
A: > 100 µM

Q: And the TGI (SK-MEL-5 melanoma)?
A: > 100 µM

Q: And the TGI (SK-OV-3 ovarian)?
A: > 100 µM

Q: And the TGI (SN12C renal)?
A: > 100 µM

Q: And the TGI (SNB-19 CNS)?
A: > 100 µM

Q: And the TGI (SNB-75 CNS)?
A: > 100 µM

Q: What about the TGI (SR leukemia) of the same compound?
A: > 100 µM

Q: And the TGI (SW-620 colon)?
A: > 100 µM

Q: And the TGI (U251 CNS)?
A: > 100 µM

Q: What about the TGI (UACC-257 melanoma) of the same compound?
A: > 100 µM

Q: And the TGI (UACC-62 melanoma)?
A: > 100 µM

Q: What about the TGI (UO-31 renal) of the same compound?
A: > 100 µM

From PubChem BioAssay (NCI)
